This experiment in a line: Lipid Peroxidation (LPO) assay. In kind it is biochemical. The note with it: 2% linoleic acid + 1% trolox in methanol, solar simulator UV dose 36x10^4 J/m^2; FIG. 2 column 2, negative control. The source says:
Lipids are present in the cell membrane bilayer. Peroxidation of lipids compromises the integrity of skin cells and […] the ageing process resulting in premature ageing. The LPO assay is designed to determine the level of LPO damage in the skin with and without external stresses such as UV exposure; and investigating whether early defence complex can protect against the UV induced LPO damage. K-assay LPO-CC004 lipid peroxidation kit (Kamiya biomedical company)˜500 assays containing— • Reagent 1 (liquid): Enzyme reagent (ascorbic oxidase, lipoprotein lipase, stabilizer, goods buffer, surfactants) • Reagent 2A: Lyophilised chromogen reagent (MCDP for 110 ml reagent 2B) • Reagent 2B: Buffer solution (liquid) (goods buffer, hemoglobin, surfactants) • Calibrator (liquid): (50 nmol/ml cumene hyderoperoxide) • D-squames (CuDerm Corp. Dalla, USA) • Linoleic acid (L.A) • Methanol (MeOH) • Deionised water (dH2O) • 96 well flat bottom clear plate • Plate reader Unless otherwise stated all the samples were prepared weight per volume in methanol. […] Absorbance was read at 675 nm. For each well, the methanol background reading was subtracted from the absorbance reading. […] As samples were run in triplicate, the mean of each sample was then calculated. […]

Take `Cc1c(C)c2c(c(C)c1O)CCC(C)(C(=O)O)O2` (stereo not shown) [Trolox]: the “oxidation (lipid peroxidation, absorbance at 675 nm)” value is reported as “very low oxidation”.

The record behind these values is US20180110721A1, “TOPICAL COSMETIC COMPOSITIONS AGAINST FREE RADICALS” (THE BOOTS COMPANY PLC, priority 2015, published 2018).
